Common to all, as to type: in vivo
In test [1] the test system is Tetranychus urticae (spider mites - adult). The experiment in a line: Contact test on spider mites - adult (TUa), French bean leaf, mortality. The following applies: 72 h, 500 ppm, contact, 3 days, read-out: TUa grading of mortality. How it is done: (§1) The activity of the Product was determined using a variety of insect pests. The Product was used in the form of liquid preparations containing 500, 250 or 100 parts per million (ppm) by weight of the Product. The preparations were made by dissolving the Product in acetone and diluting the solutions with water containing 0.01% by weight of a wetting agent sold under the trade name "LISSAPOL" NX until the liquid preparations contained the required concentration of the Product. "Lissapol" is a Registered Trade Mark.
(§2) The test procedure adopted with regard to each pest was basically the same and comprised supporting a number of the pests on a medium which was usually a host plant or a foodstuff on which the pests feed, and treating either or both the pests and the medium with the preparations. The mortality of the pests was then assessed at periods usually varying from one to three days after the treatment.
(§3) The results of the tests are given in Table III for each of the Products, at the rate in parts per million given in the second column as a grading of mortality designated as A, B or C wherein A indicates 80-100% mortality or knockdown, B indicates 50-79% mortality or knockdown and C indicates less than 50% mortality or knockdown.

Test [2] has as its system Heliothis virescens (tobacco budworm - larvae). The experiment in a line: Residual test on tobacco budworm larvae (HV), Cotton leaf, mortality. The following applies: 48 h, read-out: HV grading of mortality. The procedure:
as §1, §2, §3
(tobacco budworm - larvae)

In test [3] the test system is Tetranychus urticae (spider mites - ova). The experiment in a line: Contact test on spider mites - ova (TUe), French bean leaf, mortality. The following applies: 144 h, 500 ppm, contact, 6 days, read-out: TUe grading of mortality. How it is done:
as §1, §2, §3

Test [4] concerns Blattella germanica (cockroach nymphs). The test is described as follows: Contact test on cockroach nymphs (BG/C), Plastic pot, mortality. Conditions: 48 h, 500 ppm, contact, 2 days, read-out: BG/C grading of mortality. How it is done: as §1, §2, §3
BG/C Blattella germanica

Test [5] has as its system Nephotettix cincticeps (green leaf hopper - nymphs). The experiment in a line: Contact test on green leaf hopper nymphs (NC), Rice plant, mortality. The following applies: 48 h, 500 ppm, contact, 2 days, read-out: NC grading of mortality. The procedure: as §1, §2, §3
NC Nephotettix cincticeps

In test [6] the test system is Musca domestica (houseflies - adults). The experiment in a line: Contact test on houseflies - adults (MD), Cotton wool/sugar, mortality. Conditions: 72 h, 500 ppm, contact, 3 days, read-out: MD grading of mortality. How it is done: as §1, §2, §3
For test [7], the system named is Diabrotica balteata (rootworm larvae). The experiment in a line: Residual test on rootworm larvae (DB), Filter paper/maize seed, mortality. Conditions: 48 h, 500 ppm, residual, 2 days, read-out: DB grading of mortality. The procedure: as §1, §2, §3
In test [8] the test system is Musca domestica (houseflies - adults). The experiment in a line: Knockdown test on houseflies - adults (MD/KD), Cotton wool/sugar. Conditions: 500 ppm, 4 hours, read-out: MD/KD grading of knockdown. The procedure:
as §1, §2
In the case of the species Musca domestica (housefly), additional tests to determine the knockdown effect of the compounds were performed. PG,163
as §3

A further test concerns Myzus persicae (aphids). The experiment in a line: Contact test on aphids (MP), Chinese Cabbage leaf, mortality. Conditions: 72 h, 500 ppm, contact, 3 days, read-out: MP grading of mortality. How it is done:
as §1, §2, §3

For test [9], the system named is Spodoptera exigua (lesser army worm - larvae). The test is described as follows: Residual test on lesser army worm larvae (SP), Cotton leaf, mortality. Conditions: 48 h, 500 ppm, residual, 2 days, read-out: SP grading of mortality. The procedure:
as §1, §2, §3
(lesser army worm - larvae)

Data on 11 compounds can be found in patent publication US4962109A, “Insecticidally and acaricidally active pyrimidine esters and intermediates therefor” (Imperial Chemical Industries PLC, priority 1985, dated 1990).

Turning to `COc1c(F)c(COC(C)C)c(F)c(F)c1COC(=O)C(c1cnc(C(C)(C)C)nc1)C(C)(C)C` (racemic) [Compound 190, 2,3,5-trifluoro-6-methoxy-4-[(1-methyl)ethoxy]methylbenzyl (RS)-2-[2-(1,1-dimethylethyl)pyrimidin-5-yl]-3,3-dimethylbutanoate], the mortality at 500 ppm is 80 to 100% in test [1]; 80 to 100% in test [2]; under 50% in test [3]; under 50% in test [4]; 80 to 100% in [5]; under 50% in test [6]. The mortality at 500 ppm in test [7] was under 50%; in the test with Myzus persicae (aphids), 80 to 100%; in test [9], 80 to 100%. Also, the pest or weed control at 500 ppm in test [8] fell in the range of 80 to 100%.

Take `CC(C)(C)c1ncc(C(C(=O)OCc2c(F)c(F)c(CN3CCCCC3)c(F)c2F)C(C)(C)C)cn1` (racemic) [Compound 177, 4-[(piperidin-1-yl)methyl]-2,3,5,6-tetrafluorobenzyl (RS)-2-(2-(1,1-dimethylethyl)pyrimidin-5-yl)-3,3-dimethylbutanoate]: the mortality at 500 ppm is 80 to 100% in [1]; under 50% in test [2]; under 50% in [3]; under 50% in test [4]; 80 to 100% in test [5]; under 50% in [6]. Also, the figures for the mortality at 500 ppm (in [7]; in the test on Myzus persicae (aphids); in [9]) were under 50%, 80 to 100% and 80 to 100%, respectively. The pest or weed control at 500 ppm in [8] was in the range of 80 to 100%.

`COCc1c(F)c(F)c(COC(=O)C(c2cnc(C(C)C)nc2)C(C)(C)C)c(OC)c1F` (racemic) [Compound 76, 3,5,6-trifluoro-2-methoxy-4-(methoxymethyl)benzyl (RS)-2-[2-(1-methylethyl)pyrimidin-5-yl]-3,3-dimethylbutanoate]: the mortality at 500 ppm in [1] is 80 to 100%; in test [2] it was 80 to 100%; in [3] it was under 50%; in [4], 50 to 79%; in [5], 80 to 100%; in test [6] it was 50 to 79%. The mortality at 500 ppm in [7] was under 50%; in the test with Myzus persicae (aphids) it was 80 to 100%; in test [9] it was 80 to 100%. The pest or weed control at 500 ppm in test [8] lay within 80 to 100%.

As to `CCCc1c(F)c(F)c(COC(=O)C(c2cnc(C(C)(C)C)nc2)C(C)(C)C)c(F)c1F` (racemic) [Compound 168, 4-(n-propyl)-2,3,5,6-tetrafluorobenzyl (RS)-2-[2-(1,1-dimethylethyl)pyrimidin-5-yl]-3,3-dimethylbutanoate], the mortality at 500 ppm in test [1] is 80 to 100%; in [2] it was 50 to 79%; in test [3] it was 80 to 100%; in test [4] it was under 50%; in [5] it was 80 to 100%; in test [6], under 50%. The mortality at 500 ppm was under 50% in test [7], 80 to 100% in the test on Myzus persicae (aphids) and 50 to 79% in test [9]. The pest or weed control at 500 ppm in [8] was under 50%.

Take `C#CCc1c(F)c(F)c(COC(=O)C(c2cnc(C(C)(C)C)nc2)C2CC2)c(F)c1F` (racemic) [Compound 91, 2,3,5,6-tetrafluoro-4-(prop-2-yn-1-yl)benzyl (RS)-2-[2-(1,1-dimethylethyl)pyrimidin-5-yl]-2-cyclopropylacetate]: the mortality at 500 ppm in test [1], in [2], in [3], in test [4], in [5] and in [6] was 80 to 100% throughout. Moreover, the mortality at 500 ppm (in test [7]; in the test on Myzus persicae (aphids); in test [9]) was 80 to 100% throughout. Also, the pest or weed control at 500 ppm in test [8] fell in the range of 80 to 100%.

Turning to `CC(C)(C)c1ncc(C(C(=O)OC(C#N)c2cccc(Oc3ccccc3)c2)C(C)(C)C)cn1` (racemic) [Compound 2, (RS)-1-cyano-1-(3-phenoxphenyl)methyl (RS)-2-[2-(1,1-dimethylethyl)pyrimidin-5-yl]-3,3-dimethylbutanoate], the mortality at 500 ppm is 80 to 100% in test [1]; 80 to 100% in test [2]; under 50% in test [3]; under 50% in [4]; 80 to 100% in [5]; 80 to 100% in test [6]. Also, the mortality at 500 ppm (in [7]; in the test on Myzus persicae (aphids); in test [9]) was 80 to 100% throughout. Moreover, the pest or weed control at 500 ppm in [8] was under 50%.

Turning to `CCOCc1c(F)c(F)c(COC(=O)C(c2cnc(C(C)(C)C)nc2)C(C)(C)C)c(F)c1F` (racemic) [Compound 186, 2,3,5,6-tetrafluoro-4-(ethoxymethyl)benzyl (RS)-2-[2-(1,1-dimethylethyl)pyrimidin-5-yl]-3,3-dimethylbutanoate], the mortality at 500 ppm in [1] was 80 to 100%; in [2] it was 80 to 100%; in test [3], under 50%; in test [4], under 50%; in test [5] it was 80 to 100%; in test [6], under 50%. In addition, the figures for the mortality at 500 ppm (in test [7]; in the test on Myzus persicae (aphids); in [9]) were under 50%, 80 to 100% and 80 to 100%, respectively. Moreover, the pest or weed control at 500 ppm in test [8] lay within 80 to 100%.

For `CSc1c(F)c(F)c(COC(=O)C(c2cnc(C(C)(C)C)nc2)C(C)(C)C)c(F)c1F` (racemic) [Compound 183], the mortality at 500 ppm was 80 to 100% in [1]; 80 to 100% in test [2]; under 50% in test [3]; under 50% in test [4]; 80 to 100% in [5]; 80 to 100% in test [6]. Moreover, the mortality at 500 ppm in test [7] was under 50%; in the test on Myzus persicae (aphids) it was under 50%; in test [9] it was 80 to 100%. For the same compound, the pest or weed control at 500 ppm in [8] was 80 to 100%.

On to `C#CCSCc1c(F)c(F)c(COC(=O)C(c2cnc(C(C)(C)C)nc2)C(C)(C)C)c(F)c1F` (racemic) [Compound 220], for which the mortality at 500 ppm in [1] is 80 to 100%; in [2] it was under 50%; in [3], under 50%; in [4] it was under 50%; in test [5] it was 80 to 100%; in test [6] it was 80 to 100%. For the same compound, the results for the mortality at 500 ppm (in test [7]; with Myzus persicae (aphids); in test [9]) were 50 to 79%, 80 to 100% and 50 to 79%, respectively. In addition, the pest or weed control at 500 ppm in [8] fell in the range of 80 to 100%.

For `CC(C)(C)c1ncc(C(C(=O)OCc2c(F)cccc2Cl)C(C)(C)C)cn1` (racemic) [Compound 26, 2-chloro-6-fluorobenzyl (RS)-2-[2-(1,1-dimethylethyl)pyrimidin-5-yl]-3,3-dimethylbutanoate], the mortality at 500 ppm in test [1] is 80 to 100%; in [2], under 50%; in test [3], 80 to 100%; in [4], under 50%; in [5] it was 80 to 100%; in test [6], 80 to 100%. For the same compound, the mortality at 500 ppm in [7] lay within 80 to 100%; with Myzus persicae (aphids), 50 to 79%; in test [9], 80 to 100%. The pest or weed control at 500 ppm in [8] fell in the range of 80 to 100%.

`COCc1c(F)c(F)c(COC(=O)C(c2cnc(C(C)(C)C)nc2)C(F)(F)F)c(F)c1F` (racemic) [Compound 213, 4-(methoxymethyl)-2,3,5,6-tetrafluorobenzyl (RS)-2-[2-(1,1-dimethylethyl)pyrimidin-5-yl]-3,3,3-trifluoropropionate]: the mortality at 500 ppm in test [1] was 80 to 100%; in test [2], under 50%; in test [3], under 50%; in test [4], 50 to 79%; in test [5], under 50%; in test [6], under 50%. In addition, the mortality at 500 ppm was under 50% in [7], 50 to 79% in the test on Myzus persicae (aphids) and under 50% in test [9]. Further, the pest or weed control at 500 ppm in test [8] fell in the range of 80 to 100%.
